The source of these data is patent US6649797B2, “Compounds and methods of use to treat infectious diseases” (The Picower Institute for Medical Research, priority 1996, dated 2003).

The test system of data set [1] is nucleoplasmin-coated gold particles. The data set can be described thus: Nuclear import of nucleoplasmin-coated gold particles.
Data set [2] can be described thus: In vitro metabolism with mouse liver post-mitochondrial supernatant and NADPH. The data set is classed as in vitro ADME. As for the experimental part: Several female ND4 Swiss Webster mice were euthanized by carbon dioxide inhalation and the livers excised and rinsed with ice cold phosphate buffered saline (pH 7.4). The livers were minced, gently homogenized in 50 mM phosphate buffer (pH 7.4) with a Dounce homogenizer, and centrifuged at 9600× g for 20 min. The post-mitochondrial supernatant was kept, glycerol added to 20%, and frozen at −70° C in 1.0 ml aliquots until used. For each incubation, 1.0 ml of a 1.0 mg/ml drug solution was added to 3.0 ml of 50 mM phosphate buffer (pH 7.4), 1.0 ml of 2 mg/ml NADPH in 50 mM phosphate (pH 7.4), and 1.0 ml of the post-mitochondrial supernatant. Five hundred μl of each incubate was then immediately transferred to an ice-cold tube to provide the zero-time sample, and addition 500 μl aliquots removed to ice-cold tubes at 8, 15, 30, and 60 min. The samples were then extracted, and analyzed by HPLC as described in section 7.1. Control incubations were also performed where drug or post-10 mitochondrial supernatant was omitted. […] Peaks in the CNI compound incubations which increased over time, and were not present in control samples lacking the enzyme preparation were treated as putative metabolites.

The subject of data set [3] is HIV-1ADA. The data set can be described thus: Nuclear importation of HIV-1 DNA in monocytes (2-LTR circle PCR, Translocation Index). The conditions noted are these: 100 nM, 48 and 96 hours post infection. The data set is classed as cell-based. The text has this:
The effects of Compound No. 2 on the nuclear importation of HIV-1 preintegration complexes can be directly measured by detecting the presence of circularized duplex HIV-1 genomic DNA. These duplex circles can be readily detected by PCR amplification using primers which span the junction of the circularized HIV-1 genome. Bukrinsky, M. I., et al., 1992, Proc.Natl.Acad.Sci. 89:6580-84.
Briefly, the efficiency of nuclear translocation was estimated by the ratio between the 2-LTR- and pol-specific PCR products, which reflects the portion of 2-LTR circle DNA molecules as a fraction of the entire pool of intracellular HIV-1 DNA. Viral 2-LTR circle DNA is formed exclusively within the nucleus of infected cells and thus is a convenient marker of successful nuclear translocation. […]
PCR analysis of HIV-1 DNA: Total DNA was extracted from HIV-1-infected cells using the IsoQuick extraction kit (Microprobe Corp., Garden Grove, Calif.). DNA was then analyzed by PCR using primer pairs that amplify the following sequences: a fragment of HIV-1 (LTR/gag) that is the last one to be synthesized during reverse transcription and therefore represents the pool of full-length viral DNA molecules; a fragment of polymerase gene (pol); a 2-LTR junction region found only in HIV-1 2-LTR circle DNA molecules; or a fragment of the cellular a-tubulin gene. […]

Data set [4] has as its system macrophage-tropic strain of HIV-1. The data set can be described thus: Inhibition of HIV-1 replication in peripheral blood-derived macrophages (IC50, RT or p24 in medium). The data set is classed as cell-based. The conditions noted are these: Human immunodeficiency virus 1, Macrophage, 120 h; 50% inhibition of viral growth; RT or p24 in medium about day 5 or 6 post-infection. As for the experimental part: A quantitative measurement of the activity of the compounds of the invention to block the replication of HIV-1 in non-dividing cells can be determined by culture of a macrophage-tropic strain of HIV-1 on peripheral blood-derived macrophages. The cells are cultured for 5-6 days prior to infection in a medium consisting of DMEM supplemented with 10% type A/B human serum and 200 U/ml Macrophage Colony Stimulating Factor, with half the medium changed after 3 days, to reach a density of about 10^6 cells per 5 ml well. A macrophage-tropic viral stock may be grown on these cells. The concentration of infectious particles in the stock is estimated by measurement of p24 antigen concentration.
To test the effect of compounds of the invention on HIV-1 infection in the above-described culture system, the medium is removed and replaced with medium containing HIV-1 at a concentration of 1 ng of p24 (10^4 TCID50/ml (TCID=tissue culture infectious doses)) and a known concentration of the compound of the invention (the inhibitor). After 24 hours, the cultures are washed to remove non-adherent virus and the culture is re-fed with medium containing the inhibitor at the desired concentration. The amount of replication of HIV-1 is estimated by an assay of the reverse transcriptase activity or by an assay of the concentration of p24 antigen in the culture medium every 2-3 days throughout the post-infection period. In a preferred embodiment the anti-HIV potency of the candidate drug is measured by comparison of the concentration of reverse transcriptase (RT) or of p24 antigen in the medium of the treated and control cultures at the time of the peak of these values in non-treated control cultures, that is about day 5 or 6 post-infection. Repetition at various levels of inhibitor allows for the calculation of the concentration of inhibitor that achieves 50% inhibition of viral growth, IC50. Table I discloses the IC50 of various inhibitors.

Molecules are shown by their SMILES.

`CC(=O)c1cc(Nc2cc(C)[n+](C)c(N)n2)cc(C(C)=O)c1` [CNI-0294, 2-Amino-4-(3,5-diacetylphenyl)amino-1,6-dimethylpyrimidinium chloride]: the “block of nuclear import of nucleoplasmin-coated gold particles” value in data set [1] is reported as “did not block”. In data set [2], the metabolites produced entry is “three minor and one major metabolite”. The “metabolic conversion (drug altered, as judged by peak area)” value in data set [2] (60 min incubation) was 43.5%.
Consider `CC(=O)c1cc(Nc2cc(C)[n+](C)c(N)n2)cc(C(C)=O)c1.[I-]` [Compound No. 2, 2-amino-4-(3,5-diacetylphenyl)amino-1,6-dimethylpyrimidinium iodide], for which the “Translocation Index” value in data set [3] (relative to drug free control) is on record as “less than 10”. Further, the inhibition at 0.1 µM in data set [3] (Human immunodeficiency virus 1, Monocyte) was over 90%. It took 1 nM to reach half-maximal inhibition in data set [4] (IC50).
